Test results from patent US8901129B2, “Methods of facilitating neural cell survival using GDNF family ligand (GFL) mimetics or RET signaling pathway activators” (GeneCode AS, priority 2009, dated 2014).

Legend:
[1] = tested on: MG87RET murine fibroblasts; test: Cell viability, CelTiterGlo (FIG. 8); assay type: cell-based; settings: concentrations above 2 μM, 48 hours
Method: The test compounds were transferred into in 384-well culture plate using Echo acoustic dispenser (Labcyte Inc.) in 2.5-125 nl volume. Trypsinized MG87RET murine fibroblasts were seeded at 20 000 cells/ml (500 cells/well) in the presence of each compound dissolved in DMSO at the indicated concentration. After brief mixing on a horizontal shaker, the plates were centrifuged and transferred into the incubator. Two days (48 hours) after addition of cells to compounds, the viability of the cells was evaluated using CelTiterGlo reagent (Promega).

[2] = tested on: GFRα1/RET-expressing cells; test: Reporter-gene luciferase activity assay, dose-response (FIG. 5); assay type: cell-based; settings: 1-50 μM, 24 h
Method: (§1) Generation of stable cell lines. MG87RET murine fibroblast were plated on […] dishes and transfected with 4 μg of G4-Luc, Gal4-Elk (Baloh et al., 2000) and GFRα1 expressing plasmid (“αLUC” cells) or empty vector (“NOα” cells) containing neomycin-resistance gene in ratio 4:1:1 using Lipofectamine 2000 (Invitrogen) for DNA delivery as described by manufacturer. The following day, cells were trypsinized and plated in low density on 10-cm tissue culture dishes. Stable transformants were selected in the presence of 500-750 μg/ml geneticin (Invitrogen). Established cell lines were maintained in DMEM, 10% fetal bovine serum (FBS), 100 μg/ml Normocin (Invivogene), 2 μg/ml of puromycin, 500 μg/ml of geneticin, 15 mM HEPES, pH 7.2. Pathdetect Elk-1 system and human GFRα1-expressing plasmid (“Strat-Luc” cells) or empty vector (control cell line “NOStratis”) cells were selected and maintained in the DMEM, 10% FBS, 100 μg/ml Normocin (Invivogene), 2 μg/ml of puromycin, 500 μg/ml of G418, 2 μg/ml of blasticidin S, 15 mM HEPES, pH 7.2.
(§2) Cells were plated on 96-well plates (or 384-well) in cell density 20 000 (or 5 000 for 384-well format) cells per well in DMEM, 10% FBS, 100 μg/ml Normocin, 2 μg/ml puromycin, 500 μg/ml of G418, 15 mM HEPES, pH 7.2 one day before assay. The following day, the compounds were added to a final concentration of 1-50 μM. Structures of the compounds are shown in the description of FIG. 5, above. Cells were allowed to produce luciferase for 24 h, then lysed in 20 μl of 1×Cell culture lysis reagent (Promega) and freeze-thawed once to ensure complete lysis. Then 5 μl of the lysate was mixed (on ice) with 20 μl of luciferase assay substrate (Promega) in a well of black Isoplate (PerkinElmer). Luminescence was counted on MicroBeta 2 counter (PerkinElmer) twice. Data are presented as fold induction, where the corresponding concentration of DMSO was used as a reference.

[3] = tested on: RET-expressing reporter cell line (RET alone); test: as above; assay type: cell-based; settings: cells expressing RET alone; 1-50 μM, 24 h
Method: as §1, §2

[4] = tested on: GFRα3/RET-expressing reporter cell line; test: as above; assay type: cell-based, human; settings: GFRα3/RET cells; 1-50 μM, 24 h
Text: Full-length flag-tagged rat Gfrα1 cDNA (Leppänen et al., 2004) subcloned into in pcDNA3 (Invitrogen). Full-length human GFRα1 cDNA (Sidorova et al., unpublished) subcloned in pcDNA6 (Invitrogen). Full-length human GFRα3 cDNA (Wang et al., 2006). Full-length human RET (long isoform) (Runeberg-Roos et al., 2007) in pCR3.1 (Invitrogen). The MAPK activation detection system (Baloh et al., 2000) and PathDetect Elk-1 (Stratagene) both of which include two plasmids. First one constitutively expresses MAPK pathway specific fusion transactivator, that consists of activation domain of Elk-1 and DNA-binding domain of the yeast GAL4 protein (Gal4-Elk1). The other plasmid, Gal4-Luc, carries luciferase gene under the control of a synthetic promoter containing the yeast GAL4 binding sequences.
as §2

GFRα1/RET = biological target: T1, GFRα1/RET (Homo sapiens, UniProt P07949+P56159); test: RET phosphorylation by BT compounds, IP and Western blotting (FIG. 6A); assay type: cell-based; settings: 100 μM, 15 min; MG87 RET fibroblasts transfected with GFRα1
T1 construct: Full-length human GFRα1 cDNA (Sidorova et al., unpublished) subcloned in pcDNA6; expressed in transfected cells; host or cells: MG87RET murine fibroblasts transiently transfected with GFRα1
T1 sequence (P56159 25-429 limits assumed, species assumed): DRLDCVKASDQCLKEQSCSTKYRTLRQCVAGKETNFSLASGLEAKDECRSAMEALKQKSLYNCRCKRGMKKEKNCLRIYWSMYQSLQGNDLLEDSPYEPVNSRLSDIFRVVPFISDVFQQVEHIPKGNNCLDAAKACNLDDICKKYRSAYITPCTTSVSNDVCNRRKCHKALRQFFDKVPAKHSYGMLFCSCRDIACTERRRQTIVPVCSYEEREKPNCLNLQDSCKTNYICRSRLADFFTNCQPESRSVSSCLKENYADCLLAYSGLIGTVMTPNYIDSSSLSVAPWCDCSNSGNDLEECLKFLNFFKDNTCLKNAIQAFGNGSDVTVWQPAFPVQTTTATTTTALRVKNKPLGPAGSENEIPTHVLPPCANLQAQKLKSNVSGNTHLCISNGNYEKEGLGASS
T1 sequence (P07949 29-1114, species assumed): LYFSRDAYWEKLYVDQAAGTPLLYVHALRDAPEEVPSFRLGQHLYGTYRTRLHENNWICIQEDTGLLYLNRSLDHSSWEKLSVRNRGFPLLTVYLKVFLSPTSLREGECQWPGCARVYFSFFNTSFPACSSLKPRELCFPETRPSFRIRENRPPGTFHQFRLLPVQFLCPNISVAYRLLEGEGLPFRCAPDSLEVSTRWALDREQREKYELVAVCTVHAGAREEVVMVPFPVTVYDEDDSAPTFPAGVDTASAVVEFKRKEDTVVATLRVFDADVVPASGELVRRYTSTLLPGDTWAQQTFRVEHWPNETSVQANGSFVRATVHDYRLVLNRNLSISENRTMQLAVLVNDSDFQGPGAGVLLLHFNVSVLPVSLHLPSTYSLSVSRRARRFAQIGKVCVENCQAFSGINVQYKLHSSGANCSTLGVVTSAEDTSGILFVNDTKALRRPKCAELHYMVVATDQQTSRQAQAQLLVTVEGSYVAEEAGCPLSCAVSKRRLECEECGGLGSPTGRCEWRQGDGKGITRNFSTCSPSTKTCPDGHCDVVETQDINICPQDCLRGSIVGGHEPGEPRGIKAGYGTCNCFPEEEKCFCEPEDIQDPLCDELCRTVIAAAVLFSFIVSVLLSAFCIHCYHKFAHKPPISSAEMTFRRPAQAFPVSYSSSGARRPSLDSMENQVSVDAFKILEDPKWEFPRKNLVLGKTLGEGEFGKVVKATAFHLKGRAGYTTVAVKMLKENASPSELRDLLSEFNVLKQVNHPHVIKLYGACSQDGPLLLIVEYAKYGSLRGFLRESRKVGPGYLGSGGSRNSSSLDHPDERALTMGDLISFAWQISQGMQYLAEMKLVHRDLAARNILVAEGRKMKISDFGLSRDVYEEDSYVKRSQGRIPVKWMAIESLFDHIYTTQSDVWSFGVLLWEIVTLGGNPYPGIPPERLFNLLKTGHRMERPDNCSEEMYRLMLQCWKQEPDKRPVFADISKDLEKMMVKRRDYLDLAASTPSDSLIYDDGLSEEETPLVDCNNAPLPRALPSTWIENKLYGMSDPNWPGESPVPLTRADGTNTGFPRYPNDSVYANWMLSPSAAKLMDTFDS
Method: (§3) MG87RET cells were plated on 35 mm tissue culture dishes the day before the experiment. Cells were transfected with GFRα1, GFRα3 or with an vector encoding for GFP. On the day of the experiment cells were starved for 4 hours in serum-free DMEM and stimulated with the investigated compounds (structures shown in the description of FIG. 6, above) at 100 μM concentration or with 100 ng/ml of GDNF or ARTN (positive control) for 15 min. Then cells were washed once with ice-cold PBS containing 1 mM Na3VO4 and lysed on ice in 1 ml per well of RIPA-modified buffer (50 mM Tris-HCl, pH 7.4, 150 mM NaCl, 1 mM EDTA, 1% NP-40, 1% TX-100, 10% glycerol, EDTA-free protease inhibitor cocktail (Roche), 1 mM Na3VO4, 2.5 mg/ml of sodium deoxycholate, 1 mM PMSF. Ret was immunoprecipitated by anti-RET C-20 antibodies (Santa-Cruz Biotechnology, Inc.). Precipitated proteins were resolved on 7.5% SDS-PAGE and then transferred onto a nitrocellulose membrane. Membrane was blocked for 15 min at room temperature by 10% nonfat dry milk in TBS-T and probed with anti-phosphotyrosine antibodies (clone 4G10, Upstate Biotechnology) diluted 1:1000 in TBS-T containing 3% nonfat dry milk for 2 hours at room temperature. The membranes were washed 3 times for 5 min in TBS-T and incubated in the 1:3000 solution of secondary anti-mouse antibodies conjugated with HRP (DAKO) diluted in TBS-T containing 3% nonfat dry milk for 45 min at room temperature. Membranes were washed with TBS-T for 5×10 min. Stained bands were visualized with ECL reagent (Pierce) using LAS3000 imaging program. To confirm equal loading of the proteins, membranes were probed with anti-RET C-20 antibodies (1:500, Santa-Cruz Biotechnology, inc.) after stripping. We used secondary anti-goat antibodies conjugated with HRP (1:1500, DAKO) to detect C-20.

GFRα3/RET = biological target: T2, GFRα3/RET (Homo sapiens, UniProt O60609+P07949); test: RET phosphorylation by BT compounds, IP and Western blotting (FIG. 6B); assay type: cell-based; settings: 100 μM, 15 min; MG87 RET fibroblasts transfected with GFRα3
T2 construct: Full-length human GFRα3 cDNA (Wang et al., 2006); expressed in transfected cells; host or cells: MG87RET murine fibroblasts transiently transfected with GFRα3
T2 sequence (O60609 32-374 limits assumed): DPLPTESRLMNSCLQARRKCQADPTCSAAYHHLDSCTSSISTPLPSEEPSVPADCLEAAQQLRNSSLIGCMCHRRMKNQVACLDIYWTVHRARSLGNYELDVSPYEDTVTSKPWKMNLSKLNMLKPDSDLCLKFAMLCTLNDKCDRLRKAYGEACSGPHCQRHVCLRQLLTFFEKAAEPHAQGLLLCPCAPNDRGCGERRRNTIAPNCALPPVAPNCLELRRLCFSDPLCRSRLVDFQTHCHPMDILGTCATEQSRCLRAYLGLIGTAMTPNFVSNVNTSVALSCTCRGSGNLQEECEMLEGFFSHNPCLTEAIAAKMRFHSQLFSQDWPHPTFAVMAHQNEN
T2 sequence (P07949 29-1114): as the sequence (P07949 29-1114, species assumed) above
Method: as §3

Row | RET phosphorylation via GFRα1 (GFRα1/RET) | RET phosphorylation via GFRα3 (GFRα3/RET) | SMILES | toxicity (cell viability) [1] | induction of luciferase expression [2] | induction of luciferase expression [3] | induction of luciferase expression [4]
1 | – | – | CCN(CC)CCCC(C)Nc1cc(/C=C/c2ccccc2Cl)nc2cc(Cl)ccc12 (stereo not drawn) [BT10] | significant toxicity | – | – | –
2 | likely the weaker GFRα1/RET agonists | likely the weaker GFRα3/RET agonists | COc1ccc(S(=O)(=O)N2CCC(Cc3ccccc3)CC2)cc1N1CCN(C(=O)c2cc(F)ccc2C(F)(F)F)CC1 [BT17] | – | in a dose-dependent manner induce luciferase expression | No significant effect | in a dose-dependent manner induce luciferase expression
